Experimental data: ChEMBL document CHEMBL3862012, “Methylene versus carbonyl bridge in the structure of new tubulin polymerization inhibitors with tricyclic A-rings” (Bioorg Med Chem, 2016)

What was measured:
[1] = Cytotoxicity against human HL-60(TB) cells assessed as growth inhibition at 10 uM after 48 hrs by SRB assay relative to control; format: functional; details: HL-60, 48 h, read-out: GI
[2] = Cytotoxicity against human MOLT4 cells assessed as growth inhibition at 10 uM after 48 hrs by SRB assay relative to control; format: functional; details: MOLT-4, 48 h, read-out: GI
[3] = Cytotoxicity against human HOP92 cells assessed as growth inhibition at 10 uM after 48 hrs by SRB assay relative to control; format: functional; details: HOP-92, 48 h, read-out: GI
[4] = Cytotoxicity against human NCI-H522 cells assessed as growth inhibition at 10 uM after 48 hrs by SRB assay relative to control; format: functional; details: NCI-H522, 48 h, read-out: GI
[5] = Cytotoxicity against human HCT116 cells assessed as growth inhibition at 10 uM after 48 hrs by SRB assay relative to control; format: functional; details: HCT-116, 48 h, read-out: GI
[6] = Cytotoxicity against human SW620 cells assessed as growth inhibition at 10 uM after 48 hrs by SRB assay relative to control; format: functional; details: SW-620, 48 h, read-out: GI
[7] = Cytotoxicity against human SF268 cells assessed as growth inhibition at 10 uM after 48 hrs by SRB assay relative to control; format: functional; details: SF-268, 48 h, read-out: GI
[8] = Cytotoxicity against human SF539 cells assessed as growth inhibition at 10 uM after 48 hrs by SRB assay relative to control; format: functional; details: SF-539, 48 h, read-out: GI
[9] = Cytotoxicity against human M14 cells assessed as growth inhibition at 10 uM after 48 hrs by SRB assay relative to control; format: functional; details: M14, 48 h, read-out: GI
[10] = Cytotoxicity against human SK-MEL-2 cells assessed as growth inhibition at 10 uM after 48 hrs by SRB assay relative to control; format: functional; details: SK-MEL-2, 48 h, read-out: GI
[11] = Cytotoxicity against human IGROV1 cells assessed as growth inhibition at 10 uM after 48 hrs by SRB assay relative to control; format: functional; details: IGROV-1, 48 h, read-out: GI
[12] = Cytotoxicity against human OVCAR4 cells assessed as growth inhibition at 10 uM after 48 hrs by SRB assay relative to control; format: functional; details: OVCAR-4, 48 h, read-out: GI
[13] = Cytotoxicity against human OVCAR5 cells assessed as growth inhibition at 10 uM after 48 hrs by SRB assay relative to control; format: functional; details: OVCAR-5, 48 h, read-out: GI
[14] = Cytotoxicity against human ACHN cells assessed as growth inhibition at 10 uM after 48 hrs by SRB assay relative to control; format: functional; details: read-out: GI
[15] = Cytotoxicity against human MCF7 cells assessed as growth inhibition at 10 uM after 48 hrs by SRB assay relative to control; format: functional; details: MCF7, 48 h, read-out: GI
[16] = Cytotoxicity against human Hs 578T cells assessed as growth inhibition at 10 uM after 48 hrs by SRB assay relative to control; format: functional; details: read-out: GI
[17] = Cytotoxicity against human T47D cells assessed as growth inhibition at 10 uM after 48 hrs by SRB assay relative to control; format: functional; details: read-out: GI
[18] = Cytotoxicity against human HL-60(TB) cells assessed as growth inhibition after 48 hrs by SRB assay; format: functional; details: HL-60, 48 h
[19] = Cytotoxicity against human K562 cells assessed as growth inhibition after 48 hrs by SRB assay; format: functional; details: K562, 48 h
[20] = Cytotoxicity against human SR cells assessed as growth inhibition after 48 hrs by SRB assay; format: functional
[21] = Cytotoxicity against human EKVX cells assessed as growth inhibition after 48 hrs by SRB assay; format: functional
[22] = Cytotoxicity against human HOP92 cells assessed as growth inhibition after 48 hrs by SRB assay; format: functional; details: HOP-92, 48 h
[23] = Cytotoxicity against human NCI-H522 cells assessed as growth inhibition after 48 hrs by SRB assay; format: functional; details: NCI-H522, 48 h
[24] = Cytotoxicity against human COLO205 cells assessed as growth inhibition after 48 hrs by SRB assay; format: functional; details: COLO 205, 48 h
[25] = Cytotoxicity against human HCC2998 cells assessed as growth inhibition after 48 hrs by SRB assay; format: functional; details: HCC 2998, 48 h
[26] = Cytotoxicity against human HCT116 cells assessed as growth inhibition after 48 hrs by SRB assay; format: functional; details: HCT-116, 48 h
[27] = Cytotoxicity against human HT-29 cells assessed as growth inhibition after 48 hrs by SRB assay; format: functional; details: HT-29, 48 h
[28] = Cytotoxicity against human SF295 cells assessed as growth inhibition after 48 hrs by SRB assay; format: functional; details: SF-295, 48 h
[29] = Cytotoxicity against human U251 cells assessed as growth inhibition after 48 hrs by SRB assay; format: functional; details: U-251, 48 h
[30] = Cytotoxicity against human SK-MEL-2 cells assessed as growth inhibition after 48 hrs by SRB assay; format: functional; details: SK-MEL-2, 48 h
[31] = Cytotoxicity against human UACC62 cells assessed as growth inhibition after 48 hrs by SRB assay; format: functional; details: UACC-62, 48 h
[32] = Cytotoxicity against human OVCAR8 cells assessed as growth inhibition after 48 hrs by SRB assay; format: functional; details: OVCAR-8, 48 h
[33] = Cytotoxicity against human IGROV1 cells assessed as growth inhibition after 48 hrs by SRB assay; format: functional; details: IGROV-1, 48 h
[34] = Cytotoxicity against human RXF393 cells assessed as growth inhibition after 48 hrs by SRB assay; format: functional; details: RXF 393, 48 h
[35] = Cytotoxicity against human SN12C cells assessed as growth inhibition after 48 hrs by SRB assay; format: functional
[36] = Cytotoxicity against human ACHN cells assessed as growth inhibition after 48 hrs by SRB assay; format: functional
[37] = Cytotoxicity against human MCF7 cells assessed as growth inhibition after 48 hrs by SRB assay; format: functional; details: MCF7, 48 h
[38] = Inhibition of sheep brain tubulin polymerization by DAPI staining-based fluorimetric method; design: species or system Ovis aries
[39] = Cytotoxicity against human HCC2998 cells assessed as growth inhibition at 10 uM after 48 hrs by SRB assay relative to control; format: functional; details: HCC 2998, 48 h, read-out: GI
[40] = Cytotoxicity against human SK-MEL-28 cells assessed as growth inhibition at 10 uM after 48 hrs by SRB assay relative to control; format: functional; details: SK-MEL-28, 48 h, read-out: GI
[41] = Cytotoxicity against human SK-MEL-5 cells assessed as growth inhibition at 10 uM after 48 hrs by SRB assay relative to control; format: functional; details: SK-MEL-5, 48 h, read-out: GI
[42] = Cytotoxicity against human UACC62 cells assessed as growth inhibition at 10 uM after 48 hrs by SRB assay relative to control; format: functional; details: UACC-62, 48 h, read-out: GI
[43] = Cytotoxicity against human SK-MEL-28 cells assessed as growth inhibition after 48 hrs by SRB assay; format: functional; details: SK-MEL-28, 48 h

COc1ccc(CN2c3ccccc3Oc3ccccc32)cc1F showed an inhibition of growth at 10 µM [1] of 46%, an inhibition of growth at 10 µM [2] of 58% and an inhibition of growth at 10 µM [3] of 33%. It also gave an inhibition of growth at 10 µM [4] of 100%, an inhibition of growth at 10 µM [5] of 69% and an inhibition of growth at 10 µM [6] of 66%. The inhibition of growth at 10 µM [7] was 15%, the inhibition of growth at 10 µM [8] was 35% and the inhibition of growth at 10 µM [9] was 66%. For the same compound, the inhibition of growth at 10 µM [10] was 90%, the inhibition of growth at 10 µM [11] was 48% and the inhibition of growth at 10 µM [12] was 28%. The inhibition of growth at 10 µM [13] was 13%, the inhibition of growth at 10 µM [14] was 19% and the inhibition of growth at 10 µM [15] was 57%. The inhibition of growth at 10 µM [16] was 38% and the inhibition of growth at 10 µM [17] was 42%.

Compound COc1ccc(CN2c3ccccc3Sc3ccccc32)c(C(F)(F)F)c1 has an inhibition of growth at 10 µM [1] of 76%, an inhibition of growth at 10 µM [2] of 76% and an inhibition of growth at 10 µM [3] of 61%. It also gave an inhibition of growth at 10 µM [4] of 100%, an inhibition of growth at 10 µM [5] of 92% and an inhibition of growth at 10 µM [6] of 74%. The inhibition of growth at 10 µM [7] was 44%, the inhibition of growth at 10 µM [8] was 100% and the inhibition of growth at 10 µM [9] was 92%. It also gave an inhibition of growth at 10 µM [10] of 96%, an inhibition of growth at 10 µM [11] of 57% and an inhibition of growth at 10 µM [12] of 56%. For the same compound, the inhibition of growth at 10 µM [13] was 35%, the inhibition of growth at 10 µM [14] was 51% and the inhibition of growth at 10 µM [15] was 76%. The inhibition of growth at 10 µM [16] was 77%, the inhibition of growth at 10 µM [17] was 74% and the GI50 [18] was 412 nM. For the same compound, the GI50 [19] was 395 nM, the GI50 [20] was 483 nM and the GI50 [21] was 1200 nM. It also gave a GI50 [22] of 227 nM, a GI50 [23] of 314 nM and a GI50 [24] of 640 nM. For the same compound, the GI50 [25] was 2000 nM, the GI50 [26] was 419 nM and the GI50 [27] was 681 nM. It also gave a GI50 [28] of 320 nM, a GI50 [29] of 431 nM and a GI50 [30] of 1180 nM. For the same compound, the GI50 [31] was 917 nM, the GI50 [32] was 2220 nM and the GI50 [33] was 3430 nM. The GI50 [34] was 380 nM, the GI50 [35] was 9730 nM and the GI50 [36] was 666 nM. For the same compound, the GI50 [37] was 349 nM.

Work on COc1ccc(CN2c3ccccc3CCc3ccccc32)cc1F yielded an IC50 [38] of 6400 nM, an inhibition of growth at 10 µM [1] of 100% and an inhibition of growth at 10 µM [2] of 84%. It also gave an inhibition of growth at 10 µM [3] of 64%, an inhibition of growth at 10 µM [4] of 100% and an inhibition of growth at 10 µM [39] of 69%. It also gave an inhibition of growth at 10 µM [5] of 98%, an inhibition of growth at 10 µM [6] of 79% and an inhibition of growth at 10 µM [7] of 61%. The inhibition of growth at 10 µM [8] was 100%, the inhibition of growth at 10 µM [9] was 100% and the inhibition of growth at 10 µM [10] was 73%. It also gave an inhibition of growth at 10 µM [40] of 49%, an inhibition of growth at 10 µM [41] of 80% and an inhibition of growth at 10 µM [42] of 75%. It also gave an inhibition of growth at 10 µM [11] of 48%, an inhibition of growth at 10 µM [12] of 58% and an inhibition of growth at 10 µM [13] of 59%. For the same compound, the inhibition of growth at 10 µM [14] was 64%, the inhibition of growth at 10 µM [15] was 80% and the inhibition of growth at 10 µM [16] was 70%. The inhibition of growth at 10 µM [17] was 53%, the GI50 [18] was 241 nM and the GI50 [19] was 402 nM. For the same compound, the GI50 [20] was 463 nM, the GI50 [21] was 1550 nM and the GI50 [22] was 587 nM. The GI50 [23] was 609 nM, the GI50 [24] was 335 nM and the GI50 [25] was 8900 nM. The GI50 [26] was 413 nM, the GI50 [27] was 319 nM and the GI50 [28] was 333 nM. It also gave a GI50 [29] of 496 nM, a GI50 [43] of 820 nM and a GI50 [31] of 804 nM. The GI50 [32] was 880 nM, the GI50 [33] was 1570 nM and the GI50 [34] was 312 nM. It also gave a GI50 [35] of 1950 nM, a GI50 [36] of 604 nM and a GI50 [37] of 352 nM.
